According to PMC8200237, “New Oxaliplatin-Pyrophosphato Analogs with Improved In Vitro Cytotoxicity” (Molecules, 2021):
Read-outs that look alike come from different tables or passages of the source.

What was measured:
[1] = tested on: PC3 human prostate cancer cells; experiment: MTT cell viability assay, PC3; format: cell-based; conditions: MTT test, 72 h; read-out: IC50 (µM) ± S.D. PC3
Protocol: (§1) The in vitro cytotoxicity of the Pt-pyrophosphato complexes (1, 2, 3, and 4) was evaluated on a panel of human cancer cell lines and compared to that of cisplatin and oxaliplatin. Cell lines representative of colon (HCT-116), prostate (PC3), breast (MDA-MB231), and […] (OV2008) carcinomas were included.
(§2) The number of living cells was evaluated by the 3-(4,5-dimethylthiazol-2-yl)-2,5-diphenyltetrazolium bromide (MTT) assay. Briefly, HCT116 human colon cancer cells, PC3 human prostate cancer cells, OV2008 human ovarian cancer cells, and MDA MB 231 human breast cancer cells were plated in 96-well plates at a density of ~5000 cells/well. After one day of incubation at 37 °C in a humid atmosphere with 5% CO2, the culture medium was replaced with 100 µL of fresh medium (control cells) or medium containing different concentrations of the test compounds in the range 1.56–100 µM. Untreated cells were used as positive controls. After the incubation period of 72 h, 10 µL of a 0.5% (w/v) MTT/PBS solution was added to each well and the incubation was prolonged for a further 2 h. After this period, the medium was removed and replaced with 100 µL of DMSO. The absorbance of each well was measured by a microplate reader (Wallac Victor3, 1420 Multilabel Counter, Perkin-Elmer, Singapore). Each compound concentration was tested in triplicate, and results were presented as percentage of the control value. IC50 values were calculated using non-linear regression in GraphPad Prism 5.01 (San Diego, CA, USA). […]
(§3) Table S1. In vitro cytotoxicitya […]
(§4) aCells (3–5·10^3 cells […]) were treated for 72 h with increasing concentrations of the tested compounds. Cytotoxicity was assessed by the MTT test. IC50 values were calculated by the four parameter logistic model (p < 0.05). S.D. = standard deviation. OXP = oxaliplatin, CDDP = cisplatin.

[2] = tested on: MDA MB 231 human breast cancer cells; experiment: MTT cell viability assay, MDA MB 231; format: cell-based; conditions: MTT test, 72 h; read-out: IC50 (µM) ± S.D. MDAMB231
Protocol: as §1, §2, §3, §4

[3] = tested on: OV2008 human cervical cancer cells; experiment: MTT cell viability assay, OV2008; format: cell-based; conditions: MTT test, 72 h; read-out: IC50 (µM) ± S.D. OV2008
Protocol: as §1, §2, §3, §4

[4] = tested on: HCT116 human colon cancer cells; experiment: MTT cell viability assay, HCT116; format: cell-based; conditions: MTT test, 72 h; read-out: IC50 (µM) ± S.D. HCT116
Protocol: as §1, §2, §3, §4

[5] = tested on: panel of four human cancer cell lines; experiment: MTT cytotoxicity, average over the four cell lines; format: cell-based; conditions: average over HCT116, PC3, OV2008, MDAMB231; MTT test, 72 h; read-out: IC50 (µM) ± S.D. Average
Protocol: as §1
From this point of view, oxaliplatin represents a better reference compound, with the bidentate oxalato ligand being more similar to the bidentate pyrophosphato ligand.
as §2, §3, §4

[6] = Stability in physiological conditions by 31P NMR (pH 7.4); format: physicochemical; conditions: D2O, HEPES buffer 50 mM, pH 7.4, 120 mM NaCl, 37 °C
Protocol: To investigate the stability of 1 and 2 in physiological-like conditions, their solutions in D2O containing HEPES buffer (50 mM, pH = 7.4) and NaCl (120 mM) were monitored at 37 °C by ^31P NMR spectroscopy. […] However, overall, also compound 2 can be considered stable for the time necessary to perform the in vitro cytotoxicity tests (72 h, see following section).
(§5) The stability of compounds 1 and 2 at 37 °C in buffered solutions was assessed by ^31P NMR spectroscopy. Each compound (~2 mg) was dissolved in 0.8 mL of D2O containing 50 mM 4-(2-hydroxyethyl)-1-piperazineethanesulfonic acid) (HEPES) buffer (pH* = 7.4 or pH* = 6.5) and 120 mM NaCl. The resulting solutions were transferred into NMR tubes and maintained at 37 °C. ^31P NMR spectra were recorded from time to time over a period of one month.

[7] = 31P NMR chemical shift/pH titration, acidity constants; format: physicochemical; conditions: D2O, 31P NMR titration; for pKa1 (first inflection point, pH*): first deprotonation step; for pKa2 (second inflection point, pH*): second deprotonation of coordinated pyrophosphate
Protocol: The pH titration of complexes 1 and 2 was carried on by recording ^31P NMR spectra at different pH* values (Figure 5).
Acidity constants for complexes 1 and 2 were determined by ^31P NMR chemical shift/pH titrations. Either compound 1 or 2 (0.0047 mmol) was dissolved in 0.550 mL of D2O and transferred into an NMR tube. The pH* of the sample was adjusted to the required value by addition of DClO4 (10, 1.0, 0.5, 0.1, or 0.05 M) or NaOD (1.0, 0.5, 0.1, or 0.05 M) solutions, and the pH* value was measured by using a 3 mm diameter electrode for NMR tubes. No control of the ionic strength was performed. The pH titration curves were fitted to the Henderson−Hasselbalch equation using the program KaleidaGraph (version 3.5, Synergy Software, Reading, PA, USA).

[8] = Stability in acidic environment by 31P NMR (pH* 6.5); format: physicochemical; conditions: D2O, HEPES buffer 50 mM, pH* 6.5, 120 mM NaCl, 37 °C
Protocol: To simulate the acidic environment surrounding cancer tissues, the stability of 1 and 2 was also investigated at pH* = 6.5 and 37 °C by ^31P NMR spectroscopy.
as §5

[9] = cited from earlier work
HCT116 cells = experiment: Annexin V/PI apoptosis assay by flow cytometry; format: cell-based, human
Protocol: In order to obtain information on tumor cells’ death, the Annexin V/propidium iodide (PI) assay was used in flow cytometry analyses. Annexin V provides a very sensitive method for detecting cellular apoptosis, while PI is commonly used to detect necrotic or late apoptotic cells (when positive to Annexin too). The FITC Annexin V staining was carried out after 24 and 48 h of incubation of HCT116 cells with the Pt-pyrophosphato complexes (1–4) or oxaliplatin/cisplatin (used as reference compounds) at the IC50 concentrations (Supplementary Materials, Table S1). The two-dimensional dot plots can be divided into four quadrants, corresponding to: (i) viable cells, which are negative to both probes (lower left quadrant; PI/FITC −/−), (ii) early apoptotic cells, which are PI-negative and Annexin V-positive (lower right quadrant; PI/FITC −/+), (iii) late apoptotic cells, which are Annexin- and PI-positive (upper right quadrant; PI/FITC +/+), and (iv) necrotic cells, which are PI-positive and Annexin-negative (upper left quadrant; PI/FITC +/−).
The Annexin V/PI assay was conducted as previously described in order to investigate the mechanism of cell death induced by the various compounds on HCT116 cells. […]

[10] = cited from earlier work; remark: listed apart in the source
[11] = free pyrophosphate, cited from earlier work

Row | SMILES | IC50 [1] [µM] | IC50 [2] [µM] | IC50 [3] [µM] | IC50 [4] [µM] | IC50 [5] [µM] | time at which a small 31P NMR signal of free pyrophosphate is first observed [6] [h] | pKa1 (first inflection point, pH*) [7] | pKa2 (second inflection point, pH*) [7] | time at which a small 31P NMR signal of free pyrophosphate is first observed [8] [h] | pKa1 [9] | pKa2 [9] | % viable cells (lower left quadrant, PI-/Annexin V-) (HCT116 cells) [%] | stability in physiological conditions [10] | pKa1 ([11]; tetrabasic acid) | pKa2 [11] | pKa3 [11] | pKa4 [11]
1 | NC1CC=CCC1N.O=P1(O)[O][Pt][O]P(=O)(O)O1 (racemic) [Compound 2, [Pt(dihydrogenpyrophosphato)(1,2-DACHEX)]] | 100 ± 6 | 39 ± 4 | 30 ± 3 | 20 ± 2 | 47 ± 6 | 120 | 2.02 | 4.23 | 96 |  |  |  |  |  |  |  | 
2 | [NH2][Pt]([NH2])([Cl])[Cl] [CDDP, cisplatin, reference compound] | 9 ± 3 | 2 ± 1 | 4 ± 1 | 9 ± 2 | 6 |  |  |  |  |  |  |  |  |  |  |  | 
3 | O=P1([O-])OP(=O)([O-])[O][Pt]2([NH]C3CCCC(C3)[NH]2)[O]1.[Na+].[Na+] (stereo not drawn) [Compound 1, Na2[Pt(pyrophosphato)(cis-1,3-DACH)]] | 29 | 26 ± 3 | 15 ± 2 | 21 ± 2 | 23 | 672 | 2.28 | 4.55 | 168 |  |  |  |  |  |  |  | 
4 | N[C@@H]1CCCC[C@H]1N.O=P([O-])(O)OP(=O)([O-])O.[Pt+2] [Compound 3, [Pt(dihydrogenpyrophosphato)(1R,2R-DACH)], reference compound] | 100 ± 8 | 91 ± 5 | 29 ± 5 | 19 ± 4 | 60 ± 8 |  |  |  |  | 2.06 | 4.40 | 84.912 | quite stable |  |  |  | 
5 | O=P1(O)OP(=O)(O)[O][Pt]2([NH]C3CCC(CC3)[NH]2)[O]1 (stereo not drawn) [Compound 4, [Pt(dihydrogenpyrophosphato)(cis-1,4-DACH)]] | 100 ± 5 | 100 ± 7 | 46 ± 5 | 44 ± 3 | 72 ± 7 |  |  |  |  | 2.03 | 4.47 |  | quite stable |  |  |  | 
6 | O=C1[O][Pt]2([NH][C@@H]3CCCC[C@H]3[NH]2)[O]C1=O [OXP, oxaliplatin] | 100 ± 5 | 93 ± 6 | 54 ± 4 | 72 | 80 |  |  |  |  |  |  |  |  |  |  |  | 
7 | O=P(O)(O)OP(=O)(O)O [Pyrophosphate] |  |  |  |  |  |  |  |  |  |  |  |  |  | 0.85 | 1.49 | 5.77 | 8.22
